Assay results as given in US20020165148A1, “Analogues and derivatives of gastrin releasing peptide (GRP)” (priority 2000, published 2002).

Assays:
diabetic rats = test: injection of GRP into diabetic rats, clearance of blood glucose; assay type: in vivo
DPP IV = molecular target: T1, DPP IV (Rattus norvegicus, UniProt P14740); test: inactivation by DPP IV cleavage / half-life in plasma; assay type: in vitro ADME
T1 construct: cleavage by the enzyme DPP IV in plasma; from tissue; host or cells: plasma

pancreatic islet cells = pancreatic islet cells in vitro; cited from earlier work

T1 sequence (P14740 37-767 limits assumed): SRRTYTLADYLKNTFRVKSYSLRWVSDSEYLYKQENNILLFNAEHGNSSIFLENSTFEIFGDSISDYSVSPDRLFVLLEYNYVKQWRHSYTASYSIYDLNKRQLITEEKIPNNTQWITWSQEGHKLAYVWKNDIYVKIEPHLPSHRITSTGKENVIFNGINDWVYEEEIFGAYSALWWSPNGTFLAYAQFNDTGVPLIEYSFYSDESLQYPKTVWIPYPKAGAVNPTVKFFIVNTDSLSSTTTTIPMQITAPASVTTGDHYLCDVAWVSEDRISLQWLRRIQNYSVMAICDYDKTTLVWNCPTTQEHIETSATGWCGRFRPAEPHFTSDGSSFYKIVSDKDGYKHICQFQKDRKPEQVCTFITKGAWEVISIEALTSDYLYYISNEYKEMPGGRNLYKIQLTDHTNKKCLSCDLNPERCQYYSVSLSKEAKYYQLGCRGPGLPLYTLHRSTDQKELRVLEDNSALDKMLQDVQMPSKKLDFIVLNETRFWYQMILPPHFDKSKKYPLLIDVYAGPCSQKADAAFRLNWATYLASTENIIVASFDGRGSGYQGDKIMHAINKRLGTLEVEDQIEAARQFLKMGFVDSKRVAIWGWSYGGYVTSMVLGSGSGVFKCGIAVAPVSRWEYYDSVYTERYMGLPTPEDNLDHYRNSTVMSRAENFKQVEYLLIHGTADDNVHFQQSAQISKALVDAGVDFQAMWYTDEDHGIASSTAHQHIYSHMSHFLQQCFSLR

With `CSCC[C@H](NC(=O)[C@H](CC(C)C)NC(=O)[C@H](Cc1c[nH]cn1)NC(=O)CNC(=O)[C@@H](NC(=O)[C@H](C)NC(=O)[C@H](Cc1c[nH]c2ccccc12)NC(=O)[C@H](Cc1c[nH]cn1)NC(=O)[C@H](CC(N)=O)NC(=O)CNC(=O)[C@H](CCCNC(=N)N)NC(=O)[C@@H]1CCCN1C(=O)[C@H](Cc1ccc(O)cc1)NC(=O)[C@H](CCSC)NC(=O)[C@H](CCCCN)NC(=O)[C@@H](NC(=O)[C@H](CC(C)C)NC(=O)[C@@H](NC(=O)[C@@H](NC(=O)CNC(=O)CNC(=O)CNC(=O)[C@H](C)NC(=O)[C@@H]1CCCN1C(=O)[C@H](CC(C)C)NC(=O)[C@@H]1CCCN1C(=O)[C@@H](N)C(C)C)[C@@H](C)O)C(C)C)[C@@H](C)O)C(C)C)C(N)=O` [GRP] the “duration of glucose-lowering action” value (diabetic rats; in vivo, diabetic rats) was “only for a short period of time”, the “clearance of blood glucose” value (diabetic rats; injection into diabetic rats) was “markedly accelerated clearance of blood glucose” and the “inactivation as a result of cleavage by DPP IV in plasma” value (DPP IV) was “rapid inactivation”. The “potentiation of glucose-induced insulin secretion” value (pancreatic islet cells) was “potentiate glucose-induced insulin secretion”.
